Data taken from patent US20090227562A1, “Combination of a Selective Noradrenaline Reuptake Unhibitor and a PDEV Inhibitor” (Pfizer Inc., priority 2004, published 2009).

What was measured:
[1] = test system: serotonin reuptake; settings: cited from earlier work
[2] = test system: dopamine reuptake; settings: cited from earlier work
[3] = test system: static allodynia in the CCI rat model; assay: Static allodynia (von Frey hairs) in the chronic constriction injury (CCI) rat model of neuropathic pain; type: in vivo; settings: CCI rats; for paw withdrawal threshold (PWT), reversal compared to the vehicle treated group: single administration, peak effect 1 h post administration, median [LQ;UQ], 6 rats per group, CCI baseline 2 g; for anti-allodynic effect following single administration: static allodynia, (S,S)-reboxetine 1-3-10-30 mg/kg IP, Compound A 3-10-30 mg/kg SC
Experimental: Male Sprague Dawley rats (175-200 g at time of surgery), obtained from Charles River, Margate, U.K.) were housed in groups of 3-6. All animals were kept under a 12 h light/dark cycle (lights on at 07 h 00 min) with food and water ad libitum. All experiments were carried out by an observer blind to drug treatments. Animals were placed in an anaesthetic chamber and anaesthetised with a 2% isofluorane O2 mixture. The right hind thigh is shaved and swabbed with 1% iodine. Animals were then transferred to a homeothermic blanket for the duration of the procedure and anaesthesia maintained during surgery via a nose cone. The skin was cut along the line of the thigh bone. The common sciatic nerve was exposed at the middle of the thigh by blunt dissection through biceps femoris. Proximal to the sciatic trifurcation, about 7 mm of nerve was freed by inserting forceps under the nerve and the nerve gently lifted out of the thigh. The forceps were gently opened and closed several times to aid clearance of the fascia from the nerve. Suture was pulled under the nerve using forceps and tied in a simple knot until slight resistance was felt and then double knotted. The procedure was repeated until 4 ligatures (4-0 silk) were tied loosely around the nerve with approx 1 mm spacing. The incision was closed in layers and the wound treated with topical antibiotics. Animals were habituated to test cages prior to the assessment of allodynia. Static allodynia was evaluated by application of von Frey hairs (Stoelting, Wood Dale, Ill., USA) in ascending order of force (0.7, 1.2, 1.4, 2, 4, 6, 8, 10, 15 and 26 grams) to the plantar surface of hind paws. […] Once a withdrawal response to a von Frey hair was established, the paw was re-tested, starting with the filament below the one that produced a withdrawal, and subsequently with the remaining filaments in descending force sequence until no withdrawal occurred. The highest force of 26 g lifted the paw as well as eliciting a response, thus represented the cut off point. Each animal had both hind paws tested in this manner. The lowest amount of force required to elicit a response was recorded as paw withdrawal threshold (PWT) in grams. Static allodynia was defined as present if animals responded to a stimulus of, or less than, 4 g, which is innocuous in normal rats. […] Static allodynia was graphically represented as median [LQ;UQ] in a logarithmic scale and data analysed by Kruskall-Wallis test for non-parametric results, followed by Mann-Whitney's U test vs vehicle group for each time point, using Prism Software version 3 (GraphPad, San Diego, USA). […] Data are the peak effects (1 h post administration) for each compound and doses expressed as median [LQ; […] In this specific case it corresponds to the Compound A dose-response line.

[4] = test system: norepinephrine reuptake; settings: as disclosed in WO-A-01/01973; cited from earlier work

Compound | serotonin reuptake inhibition [1] | dopamine reuptake inhibition [2] | paw withdrawal threshold (PWT), reversal compared to the vehicle treated group ([3]; 30 mg/kg SC) [g] | anti-allodynic effect following single administration [3] | selectivity for the inhibition of norepinephrine reuptake over the inhibition of serotonin reuptake [4] | paw withdrawal threshold (PWT), reversal compared to the vehicle treated group ([3]; 30 mg/kg IP (free base)) [g]
CCOc1ccccc1OC(c1ccccc1)C1CNCCO1 (racemic) [Reboxetine, (R,R/S,S)-(2-[(2-ethoxyphenoxy)(phenyl)methyl]morpholine)] | only marginal serotonin reuptake inhibition | no dopamine reuptake inhibition | – | – | – | –
CCCOc1ccc(S(=O)(=O)N2CCN(CC)CC2)cc1-c1nc2c(CC)n(Cc3ccccn3)nc2c(=O)[nH]1 [Compound A, 3-ethyl-5-[5-(4-ethylpiperazin-1-ylsulphonyl)-2-n-propoxyphenyl]-2-(pyridin-2-yl)methyl-2,6-dihydro-7H-pyrazolo[4,3-d]pyrimidin-7-one] | – | – | 6 | dose dependent anti-allodynic effect | – | –
CCOc1ccccc1O[C@@H](c1ccccc1)[C@@H]1CNCCO1 [(S,S)-reboxetine] | – | – | – | dose dependent anti-allodynic effect | greatly enhanced selectivity | 6
